Assay results as given in patent US10457672B2, “γ-diketones as Wnt/β-catenin signaling pathway activators” (Samumed, LLC, priority 2013, dated 2019).

Tested on: Wnt/β-catenin signaling pathway (Wnt-responsive SP5 promoter luciferase reporter in SW480 cells)
Assay: Wnt reporter (SP5 promoter-firefly luciferase) activation assay in SW480 cells
Type: cell-based
Conditions: SW480 colon cancer cells with SP5 promoter luciferase reporter, 24 h after compound addition, normalized to DMSO, concentration at half maximal activation
Experimental: Compounds that enhance the Wnt activity, or Activators, were assayed as follows. Reporter cell lines were generated by stably transducing cells of colon cancer cell lines (with a lentiviral construct that included a Wnt-responsive promoter driving expression of the firefly luciferase gene).
Lentiviral constructs were made in which the SP5 promoter, a promoter having eight TCF/LEF binding sites derived from the SP5 promoter, was linked upstream of the firefly luciferase gene. The lentiviral constructs also included a hygromycin resistance gene as a selectable marker. The SP5 promoter construct was used to transduce SW480 cells, a colon cancer cell line having a mutated APC gene that generates a truncated APC protein, leading to de-regulated accumulation of β-catenin.
Cultured SW480 cells bearing a reporter construct were distributed at approximately 10,000 cells per well into 384- or 96-well multiwell plates. Compounds from a small molecule compound library were then added to the wells in half-log dilutions using a maximum concentration of three or ten micromolar. A series of control wells for each cell type received only buffer and compound solvent DMSO. Twenty-four hours after the addition of compound, reporter activity for luciferase was assayed, for example, by addition of the BrightGlo luminescence reagent (Promega) and the Victor3 plate reader (Perkin Elmer). Readings were normalized to DMSO only treated cells, and any activities above DMSO were considered activation. Compounds were considered activators if reporter activities were 2× fold or greater than DMSO. EC50 is the concentration at half maximal activation.

`O=C(CC(=O)c1cc(O)c2c(c1O)OCCO2)c1ccccc1` [Compound 3, 1-(5,8-dihydroxy-2,3-dihydrobenzo[b][1,4]dioxin-6-yl)-3-phenylpropane-1,3-dione] was tested, and the EC50 was over 10000 nM.
`O=C(CCC(=O)c1cc2c(c(O)c1O)OCCO2)c1ccccc1` [Compound 4, 1-(7,8-dihydroxy-2,3-dihydrobenzo[b][1,4]dioxin-6-yl)-4-phenylbutane-1,4-dione] showed an EC50 (Homo sapiens) of over 10000 nM.
In the case of `O=C(CCC(=O)c1ccc2c(c1)OCCO2)c1cccc(C(F)(F)F)c1` [Compound 9, 1-(2,3-Dihydrobenzo[b][1,4]dioxin-6-yl)-4-(3-(trifluoromethyl)phenyl)butane-1,4-dione], the EC50 (Homo sapiens) is reported as 100 nM.
For `O=C(CCC(=O)c1ccc2c(c1)OCCO2)c1ccc(C(F)(F)F)cc1` [Compound 10, 1-(2,3-Dihydrobenzo[b][1,4]dioxin-6-yl)-4-(4-(trifluoromethyl)phenyl)butane-1,4-dione], the EC50 (Homo sapiens) was over 10000 nM.
In the case of `O=C(CCC(=O)c1ccc2c(c1)OCCO2)c1cccc(F)c1` [Compound 11, 1-(2,3-Dihydrobenzo[b][1,4]dioxin-6-yl)-4-(3-fluorophenyl)butane-1,4-dione], the EC50 (Homo sapiens) is reported as 13 nM.
`COc1ccccc1C(=O)CCC(=O)c1ccc2c(c1)OCCO2` [Compound 12, 1-(2,3-Dihydrobenzo[b][1,4]dioxin-6-yl)-4-(2-methoxyphenyl)butane-1,4-dione] was tested, and the EC50 (Homo sapiens) was 5 nM.
`COc1cccc(C(=O)CCC(=O)c2ccc3c(c2)OCCO3)c1` [Compound 13, 1-(2,3-Dihydrobenzo[b][1,4]dioxin-6-yl)-4-(3-methoxyphenyl)butane-1,4-dione] gave an EC50 (Homo sapiens) of 192 nM.
In the case of `O=C(CCC(=O)c1ccc2c(c1)OCCO2)c1cccnc1` [Compound 14, 1-(2,3-dihydrobenzo[b][1,4]dioxin-6-yl)-4-(pyridin-3-yl)butane-1,4-dione], the EC50 (Homo sapiens) is reported as 306 nM.
For `O=C(CCC(=O)c1ccc2c(c1)OCCO2)c1ccncc1` [Compound 15, 1-(2,3-Dihydrobenzo[b][1,4]dioxin-6-yl)-4-(pyridin-4-yl)butane-1,4-dione], the EC50 (Homo sapiens) was 90 nM.
Molecule `O=C(CCC(=O)c1ccccc1C(F)(F)F)c1ccc2c(c1)SCCO2` [Compound 16, 1-(2,3-Dihydrobenzo[b][1,4]oxathiin-6-yl)-4-(2-(trifluoromethyl)phenyl)butane-1,4-dione] has an EC50 (Homo sapiens) of 7 nM.
With `O=C(CCC(=O)c1ccc2c(c1)SCCO2)c1ccc(C(F)(F)F)cc1` [Compound 18, 1-(2,3-Dihydrobenzo[b][1,4]oxathiin-6-yl)-4-(4-(trifluoromethyl)phenyl)butane-1,4-dione] the EC50 (Homo sapiens) was over 10000 nM.
Molecule `O=C(CCC(=O)c1ccccc1F)c1ccc2c(c1)SCCO2` [Compound 19, 1-(2,3-Dihydrobenzo[b][1,4]oxathiin-6-yl)-4-(2-fluorophenyl)butane-1,4-dione] has an EC50 (Homo sapiens) of 3 nM.
Molecule `O=C(CCC(=O)c1ccc2c(c1)SCCO2)c1ccc(F)cc1` [Compound 21, 1-(2,3-Dihydrobenzo[b][1,4]oxathiin-6-yl)-4-(4-fluorophenyl)butane-1,4-dione] has an EC50 (Homo sapiens) of 31 nM.
With `O=C(CCC(=O)c1ccc2c(c1)SCCO2)c1ccccc1` [Compound 28, 1-(2,3-Dihydrobenzo[b][1,4]oxathiin-6-yl)-4-phenylbutane-1,4-dione] the EC50 (Homo sapiens) was 9 nM.
`COc1ccccc1C(=O)CCC(=O)c1ccc2c(c1)OCCC2` [Compound 61, 1-(Chroman-7-yl)-4-(2-methoxyphenyl)butane-1,4-dione] showed an EC50 (Homo sapiens) of 25 nM.
Molecule `O=C(CCC(=O)c1ccccc1C(F)(F)F)c1ccc2c(c1)CCCO2` [Compound 68, 1-(Chroman-6-yl)-4-(2-(trifluoromethyl)phenyl)butane-1,4-dione] has an EC50 (Homo sapiens) of 6 nM.
`O=C(CCC(=O)c1ccc2c(c1)CCCO2)c1cccc(C(F)(F)F)c1` [Compound 69, 1-(Chroman-6-yl)-4-(3-(trifluoromethyl)phenyl)butane-1,4-dione] gave an EC50 (Homo sapiens) of over 10000 nM.
For `O=C(CCC(=O)c1ccccc1F)c1ccc2c(c1)CCCO2` [Compound 71, 1-(Chroman-6-yl)-4-(2-fluorophenyl)butane-1,4-dione], the EC50 (Homo sapiens) was 2.5 nM.
Molecule `COc1ccc(C(=O)CCC(=O)c2ccc3c(c2)CCCO3)cc1` [Compound 76, 1-(Chroman-6-yl)-4-(4-methoxyphenyl)butane-1,4-dione] has an EC50 (Homo sapiens) of over 10000 nM.
`O=C(CCC(=O)c1ccc2c(c1)CCCO2)c1ccccc1` [Compound 80, 1-(Chroman-6-yl)-4-phenylbutane-1,4-dione] was tested, and the EC50 (Homo sapiens) was 10 nM.
With `COc1ccc(C(=O)CCC(=O)c2ccccn2)cc1OC` [Compound 207, 1-(3,4-Dimethoxyphenyl)-4-(pyridin-2-yl)butane-1,4-dione] the EC50 (Homo sapiens) was over 10000 nM.
Molecule `COc1ccc(C(=O)CCC(=O)c2cccnc2)cc1OC` [Compound 208, 1-(3,4-Dimethoxyphenyl)-4-(pyridin-3-yl)butane-1,4-dione] has an EC50 (Homo sapiens) of over 10000 nM.
With `COc1ccc(C(=O)CCC(=O)c2ccncc2)cc1OC` [Compound 209, 1-(3,4-Dimethoxyphenyl)-4-(pyridin-4-yl)butane-1,4-dione] the EC50 (Homo sapiens) was over 10000 nM.
`O=C(CCC(=O)c1ccccc1C(F)(F)F)c1ccc2c(c1)OCO2` [Compound 210, 1-(Benzo[d][1,3]dioxol-5-yl)-4-(2-(trifluoromethyl)phenyl)butane-1,4-dione] gave an EC50 (Homo sapiens) of 2 nM.
`O=C(CCC(=O)c1ccccc1F)c1ccc2c(c1)OCO2` [Compound 213, 1-(Benzo[d][1,3]dioxol-5-yl)-4-(2-fluorophenyl)butane-1,4-dione] showed an EC50 (Homo sapiens) of 18 nM.
With `O=C(CCC(=O)c1ccc2c(c1)OCO2)c1cccc(F)c1` [Compound 214, 1-(Benzo[d][1,3]dioxol-5-yl)-4-(3-fluorophenyl)butane-1,4-dione] the EC50 (Homo sapiens) was 10 nM.
`COc1ccccc1C(=O)CCC(=O)c1ccc2c(c1)OCO2` [Compound 216, 1-(Benzo[d][1,3]dioxol-5-yl)-4-(2-methoxyphenyl)butane-1,4-dione] was tested, and the EC50 (Homo sapiens) was 11 nM.
With `COc1cccc(C(=O)CCC(=O)c2ccc3c(c2)OCO3)c1` [Compound 217, 1-(Benzo[d][1,3]dioxol-5-yl)-4-(3-methoxyphenyl)butane-1,4-dione] the EC50 (Homo sapiens) was 343 nM.
For `O=C(CCC(=O)c1ccc2c(c1)OCO2)c1ccccc1` [Compound 222, 1-(Benzo[d][1,3]dioxol-5-yl)-4-phenylbutane-1,4-dione], the EC50 (Homo sapiens) was 3 nM.
`O=C(CCC(=O)c1ccccn1)c1ccc2c(c1)OC(F)(F)O2` [Compound 232, 1-(2,2-Difluorobenzo[d][1,3]dioxol-5-yl)-4-(pyridin-2-yl)butane-1,4-dione] was tested, and the EC50 (Homo sapiens) was 134 nM.
In the case of `O=C(CCC(=O)c1ccc2c(c1)OC(F)(F)O2)c1ccccc1` [Compound 235, 1-(2,2-Difluorobenzo[d][1,3]dioxol-5-yl)-4-phenylbutane-1,4-dione], the EC50 (Homo sapiens) is reported as 494 nM.
`O=C(CCC(=O)c1cccc2c1OCCO2)c1ccc(C(F)(F)F)cc1` [Compound 238, 1-(2,3-Dihydrobenzo[b][1,4]dioxin-5-yl)-4-(4-(trifluoromethyl)phenyl)butane-1,4-dione] showed an EC50 (Homo sapiens) of over 10000 nM.
In the case of `O=C(CCC(=O)c1cccc2c1OCCO2)c1cccc(F)c1` [Compound 240, 1-(2,3-Dihydrobenzo[b][1,4]dioxin-5-yl)-4-(3-fluorophenyl)butane-1,4-dione], the EC50 (Homo sapiens) is reported as 669 nM.
`COc1ccccc1C(=O)CCC(=O)c1cccc2c1OCCO2` [Compound 242, 1-(2,3-Dihydrobenzo[b][1,4]dioxin-5-yl)-4-(2-methoxyphenyl)butane-1,4-dione] showed an EC50 (Homo sapiens) of 789 nM.
`O=C(CCC(=O)c1cccc2c1OCCO2)c1ccccc1` [Compound 248, 1-(2,3-Dihydrobenzo[b][1,4]dioxin-5-yl)-4-phenylbutane-1,4-dione] was tested, and the EC50 (Homo sapiens) was over 10000 nM.
With `O=C(CCC(=O)c1ccccc1C(F)(F)F)c1ccc2[nH]ccc2c1` [Compound 249, 1-(1H-Indol-5-yl)-4-(2-(trifluoromethyl)phenyl)butane-1,4-dione] the EC50 (Homo sapiens) was 4 nM.
`O=C(CCC(=O)c1ccccc1F)c1ccc2[nH]ccc2c1` [Compound 252, 1-(2-Fluorophenyl)-4-(1H-indol-5-yl)butane-1,4-dione] was tested, and the EC50 (Homo sapiens) was 1 nM.
With `COc1ccccc1C(=O)CCC(=O)c1ccc2[nH]ccc2c1` [Compound 255, 1-(1H-Indol-5-yl)-4-(2-methoxyphenyl)butane-1,4-dione] the EC50 (Homo sapiens) was 17 nM.
For `O=C(CCC(=O)c1ccccn1)c1ccc2[nH]ccc2c1` [Compound 258, 1-(1H-Indol-5-yl)-4-(pyridin-2-yl)butane-1,4-dione], the EC50 (Homo sapiens) was 16 nM.
`O=C(CCC(=O)c1ccc2[nH]ccc2c1)c1ccccc1` [Compound 261, 1-(1H-indol-5-yl)-4-phenylbutane-1,4-dione] was tested, and the EC50 (Homo sapiens) was 42 nM.
Work on `O=C(CCC(=O)c1ccc2[nH]cnc2c1)c1cccc(C(F)(F)F)c1` [Compound 263, 1-(1H-Benzo[d]imidazol-5-yl)-4-(3-(trifluoromethyl)phenyl)butane-1,4-dione] yielded an EC50 (Homo sapiens) of over 10000 nM.
With `O=C(CCC(=O)c1ccccc1F)c1ccc2[nH]cnc2c1` [Compound 265, 1-(1H-Benzo[d]imidazol-5-yl)-4-(2-fluorophenyl)butane-1,4-dione] the EC50 (Homo sapiens) was 201 nM.
With `COc1cccc(C(=O)CCC(=O)c2ccc3[nH]cnc3c2)c1` [Compound 269, 1-(1H-Benzo[d]imidazol-5-yl)-4-(3-methoxyphenyl)butane-1,4-dione] the EC50 (Homo sapiens) was over 10000 nM.
`O=C(CCC(=O)c1ccc2[nH]cnc2c1)c1ccccc1` [Compound 274, 1-(1H-Benzo[d]imidazol-5-yl)-4-phenylbutane-1,4-dione] showed an EC50 (Homo sapiens) of 6800 nM.
